Some test systems named below: SN12C; OVCAR-8; NCI-H460; 786-0; SK-MEL-5; HOP-92; RXF 393; SF-268; SK-MEL-28; UO-31; KM12; CCRF-CEM; EKVX; SF-295; OVCAR-3; DU-145; MCF7; MDA-MB-435.
Holding throughout (test): NCI anticancer screen, dose series, 48 h

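Values below derive from 48-hour exposures of cells grown in 96-well plates, with endpoints linearly interpolated between the two concentrations bracketing the appropriate inhibition level. GI50: concentration for 50% inhibition of growth.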 The source made the active and inactive calls. Cut-off read from the data, not from the text of the source: active = GI50 up to about 1.1 µM and inactive = higher. Where only a bound is given, the exact number is not on record here.

As to `C=C(Br)N(CC)CC`, the GI50 with SN12C, in the assay on OVCAR-8, in the assay on NCI-H460, in the assay on 786-0, with SK-MEL-5 and with HOP-92 was > 100 µM (inactive) each time. Further, the GI50 in the assay with RXF 393, with SF-268, in the assay on SK-MEL-28, in the assay with UO-31, with KM12 and with CCRF-CEM was > 100 µM (inactive) throughout. For the same molecule, the GI50 in the assay on EKVX, with SF-295 and in the assay on OVCAR-3 was > 100 µM (inactive) in each case.

In the case of `CCCCCCCCCCCCCCCCCc1nc(C#N)c(N)o1`, the GI50 in the assay on SN12C is 61 µM (inactive); in the assay with OVCAR-8, 13.8 µM (inactive); with DU-145, > 100 µM (inactive); with 786-0, 23.3 µM (inactive); with MCF7 it was > 100 µM (inactive); with SK-MEL-5, > 100 µM (inactive). Moreover, the GI50 with HOP-92 is 74.5 µM (inactive); with SF-268, 33.2 µM (inactive); with SK-MEL-28 it was > 100 µM (inactive); in the assay with MDA-MB-435 it was > 100 µM (inactive); in the assay with KM12, 23.5 µM (inactive); with CCRF-CEM, 2.28 µM (inactive). In addition, the GI50 with EKVX is > 100 µM (inactive).

Consider `CN(C)C(=S)N=C(Nc1ccccc1)Nc1ccccc1`, for which the GI50 with SN12C, in the assay on OVCAR-8, in the assay on NCI-H460, with 786-0, with SK-MEL-5 and in the assay on HOP-92 was > 100 µM (inactive) in each case. The GI50 with RXF 393, with SF-268, with SK-MEL-28, with UO-31, with KM12 and with CCRF-CEM was > 100 µM (inactive) in each case. Moreover, the GI50 with EKVX, in the assay on SF-295 and in the assay with OVCAR-3 was > 100 µM (inactive) in each case.

In the case of `COc1cc2cnc3c4cc(OCc5ccccc5)ccc4ccc3c2cc1OC`, the GI50 in the assay on SN12C is 73.3 µM (inactive); with OVCAR-8, 18.2 µM (inactive); with NCI-H460 it was 19 µM (inactive); with 786-0, 12.1 µM (inactive); in the assay with SK-MEL-5 it was 17.4 µM (inactive); in the assay on HOP-92 it was 16.6 µM (inactive). Further, the GI50 in the assay on RXF 393 was 12 µM (inactive); in the assay on SF-268, 19.4 µM (inactive); with SK-MEL-28 it was 38.3 µM (inactive); in the assay with UO-31 it was 27.2 µM (inactive); in the assay with KM12, 29.8 µM (inactive); with CCRF-CEM it was 2.81 µM (inactive). Moreover, the GI50 in the assay on EKVX is 58.3 µM (inactive); with SF-295 it was 15.6 µM (inactive); in the assay with OVCAR-3, 40.6 µM (inactive).

Consider `c1ccc(NC[Si]23OCCN(CCO2)CCO3)cc1`, for which the GI50 in the assay on SN12C, in the assay with OVCAR-8, in the assay with NCI-H460, in the assay on 786-0, in the assay on SK-MEL-5 and in the assay with HOP-92 was > 100 µM (inactive) in each case. The GI50 with RXF 393, with SF-268, in the assay with SK-MEL-28, in the assay on UO-31, in the assay with KM12 and in the assay with CCRF-CEM was > 100 µM (inactive) throughout. Further, the GI50 in the assay on EKVX, in the assay on SF-295 and in the assay on OVCAR-3 was > 100 µM (inactive) in each case.

For the molecule `CC/C=C\C/C=C\C/C=C\CCCCCCCC(=O)OCC(O)CO` (stereo not given), the GI50 was > 95.1 µM (inactive) with SN12C; > 67.8 µM (inactive) in the assay on OVCAR-8; > 69.3 µM (inactive) in the assay on NCI-H460; > 63.1 µM (inactive) in the assay on 786-0; > 59.2 µM (inactive) in the assay on SK-MEL-5; > 68.1 µM (inactive) with HOP-92. The GI50 is > 100 µM (inactive) in the assay with RXF 393; > 90.8 µM (inactive) in the assay on SF-268; > 100 µM (inactive) in the assay on SK-MEL-28; 16.4 µM (inactive) in the assay on UO-31; > 56.9 µM (inactive) in the assay on KM12; > 47.8 µM (inactive) in the assay on CCRF-CEM. Further, the figures for the GI50 in the assay on EKVX, in the assay with SF-295 and in the assay with OVCAR-3 were > 88.7 µM (inactive), > 83.2 µM (inactive) and 40.9 µM (inactive), respectively.

For `CCOc1ccccc1NC(=O)C(=O)CC(=O)C1=C(C)Nc2ccccc2S1`, the GI50 with SN12C, in the assay with OVCAR-8, in the assay with NCI-H460, with 786-0, in the assay on SK-MEL-5 and in the assay with HOP-92 was > 100 µM (inactive) each time. Besides, the GI50 in the assay on RXF 393 is > 100 µM (inactive); in the assay with SF-268, > 100 µM (inactive); in the assay with SK-MEL-28, > 100 µM (inactive); in the assay on UO-31 it was > 93.3 µM (inactive); with KM12 it was > 100 µM (inactive); in the assay on CCRF-CEM it was > 100 µM (inactive). The GI50 in the assay on EKVX, in the assay with SF-295 and with OVCAR-3 was > 100 µM (inactive) each time.

Regarding `C/C(CC(=O)Nc1ccccc1[N+](=O)[O-])=N\NC(N)=O`, the GI50 in the assay on OVCAR-8, in the assay on NCI-H460, with 786-0, with SK-MEL-5, with HOP-92 and in the assay with RXF 393 was > 100 µM (inactive) throughout. Also, the GI50 in the assay on SF-268, in the assay with SK-MEL-28, with UO-31, in the assay with KM12, in the assay with CCRF-CEM and in the assay on EKVX was > 100 µM (inactive) in each case. Moreover, the GI50 in the assay on SF-295 and in the assay on OVCAR-3 was > 100 µM (inactive) in each case.

As for `CC1=CC(=O)NCCN1C`, the GI50 with SN12C, in the assay with OVCAR-8, in the assay with NCI-H460, with 786-0, with SK-MEL-5 and in the assay on HOP-92 was > 100 µM (inactive) in each case. For the same molecule, the GI50 with RXF 393 was > 100 µM (inactive); with SF-268 it was > 100 µM (inactive); with SK-MEL-28, > 100 µM (inactive); in the assay on UO-31 it was > 100 µM (inactive); in the assay with KM12, > 100 µM (inactive); in the assay with CCRF-CEM, 75.2 µM (inactive). Further, the GI50 with EKVX, in the assay on SF-295 and with OVCAR-3 was > 100 µM (inactive) each time.

For `CCOC(=O)c1c2ccc(/C=C/c3ccccn3)ccc-2c(C(=O)OCC)c1N`, the GI50 with NCI-H460 was 89.1 µM (inactive); in the assay with 786-0, > 100 µM (inactive); with SK-MEL-5 it was > 100 µM (inactive); in the assay on HOP-92, > 100 µM (inactive); in the assay on RXF 393, > 100 µM (inactive); in the assay with SF-268, 0.091 µM (active). Besides, the GI50 in the assay with SK-MEL-28 is 0.361 µM (active); in the assay with UO-31, > 100 µM (inactive); in the assay with KM12, > 100 µM (inactive); in the assay with CCRF-CEM it was > 100 µM (inactive); with EKVX, > 100 µM (inactive); with SF-295, > 100 µM (inactive). Besides, in the assay with OVCAR-3, the GI50 was > 100 µM (inactive).

As to `CC1/C(=N\O)CC(c2ccccc2)N(C)C1c1ccccc1` (stereo not given), the GI50 in the assay with SN12C, in the assay on OVCAR-8, with NCI-H460, with 786-0, in the assay on SK-MEL-5 and with HOP-92 was > 100 µM (inactive) in each case. Besides, the GI50 in the assay on RXF 393, in the assay on SF-268, in the assay with SK-MEL-28, in the assay on UO-31, in the assay with KM12 and in the assay on CCRF-CEM was > 100 µM (inactive) in each case. In addition, the GI50 with EKVX, with SF-295 and in the assay with OVCAR-3 was > 100 µM (inactive) in each case.

Regarding `NC(=S)N/N=C/C(O[C@@H](/C=N/NC(N)=S)CO)n1cnc2c(N)ncnc21` (stereo not given in full), the GI50 was > 100 µM (inactive) with SN12C; > 91.2 µM (inactive) in the assay with OVCAR-8; > 80.5 µM (inactive) with NCI-H460; > 58.2 µM (inactive) with 786-0; 44.6 µM (inactive) in the assay on SK-MEL-5; 97.5 µM (inactive) in the assay with HOP-92. The GI50 was > 100 µM (inactive) in the assay with RXF 393; > 85.5 µM (inactive) with SF-268; > 100 µM (inactive) with SK-MEL-28; > 100 µM (inactive) in the assay with UO-31; > 100 µM (inactive) with KM12; 37.2 µM (inactive) with CCRF-CEM. The GI50 is > 100 µM (inactive) in the assay on EKVX, > 100 µM (inactive) with SF-295 and > 55.3 µM (inactive) in the assay with OVCAR-3.

`CN1CCN=C1c1nnn(-c2ccc([N+](=O)[O-])cc2)c1-c1ccccc1`: the GI50 with SN12C is > 100 µM (inactive); in the assay on OVCAR-8, > 100 µM (inactive); in the assay on NCI-H460, > 100 µM (inactive); with 786-0, > 100 µM (inactive); in the assay on SK-MEL-5 it was > 100 µM (inactive); in the assay with HOP-92, 13.6 µM (inactive). Also, the GI50 in the assay with RXF 393 is > 100 µM (inactive); in the assay on SF-268, > 100 µM (inactive); in the assay with SK-MEL-28, > 100 µM (inactive); in the assay with UO-31 it was 75.5 µM (inactive); in the assay on KM12, > 100 µM (inactive); in the assay on CCRF-CEM, 24.7 µM (inactive). The GI50 in the assay with EKVX, in the assay with SF-295 and with OVCAR-3 was > 100 µM (inactive) in each case.
